In US20240415914A1, “Water Dispersible Cannabinoid Compositions” (priority 2021, published 2024):

Test: Stability of cannabinoid and Vitamin E components of Beverage 2 (AB Red) stored at 8° C. and 21-25° C., LCMSMS over 570 days
Procedure: The LCMSMS was calibrated for 0-50 ng/ml cannabinoids with the same resin material used in the preparation of the concentrates. At each time period, 100 μml of beverage was diluted with 10 ml of methanol and injected into the LCMSMS for analysis.

Structure (SMILES): Cc1c(C)c2c(c(C)c1OC(=O)CCC(=O)O)CC[C@@](C)(CCC[C@H](C)CCC[C@H](C)CCCC(C)C)O2 [α-Tocopheryl succinate]
- Stability of Vitamin Es in AB Red (8° C., 26 days): 12.5 µg/mL
- Stability of Vitamin Es in AB Red (8° C., 29 days): 11.6 µg/mL
- Stability of Vitamin Es in AB Red (8° C., 30 days): 12.4 µg/mL
- Stability of Vitamin Es in AB Red (8° C., 60 days): 11.4 µg/mL
- Stability of Vitamin Es in AB Red (8° C., 90 days): 11.5 µg/mL
- Stability of Vitamin Es in AB Red (8° C., 120 days): 12.2 µg/mL
- Stability of Vitamin Es in AB Red (8° C., 150 days): 11.5 µg/mL
- Stability of Vitamin Es in AB Red (8° C., 180 days): 11.4 µg/mL
- Stability of Vitamin Es in AB Red (8° C., 210 days): 11.4 µg/mL
- Stability of Vitamin Es in AB Red (8° C., 240 days): 11.6 µg/mL
- Stability of Vitamin Es in AB Red (8° C., 270 days): 11.5 µg/mL
- Stability of Vitamin Es in AB Red (8° C., 300 days): 11.2 µg/mL
- Stability of Vitamin Es in AB Red (8° C., 330 days): 11.7 µg/mL
- Stability of Vitamin Es in AB Red (8° C., 390 days): 11.2 µg/mL
- Stability of Vitamin Es in AB Red (8° C., 420 days): 11.0 µg/mL
- Stability of Vitamin Es in AB Red (8° C., 450 days): 11.2 µg/mL
- Stability of Vitamin Es in AB Red (8° C., 480 days): 10.9 µg/mL
- Stability of Vitamin Es in AB Red (8° C., 510 days): 10.8 µg/mL
- Stability of Vitamin Es in AB Red (8° C., 540 days): 10.9 µg/mL
- Stability of Vitamin Es in AB Red (8° C., 570 days): 10.6 µg/mL
- Stability of Vitamin Es in AB Red (21-25° C., 0 days): 12.5 µg/mL
- Stability of Vitamin Es in AB Red (21-25° C., 1 days): 12.5 µg/mL
- Stability of Vitamin Es in AB Red (21-25° C., 2 days): 12.0 µg/mL
- Stability of Vitamin Es in AB Red (21-25° C., 3 days): 11.9 µg/mL
- Stability of Vitamin Es in AB Red (21-25° C., 5 days): 11.9 µg/mL
- Stability of Vitamin Es in AB Red (21-25° C., 8 days): 12.0 µg/mL
- Stability of Vitamin Es in AB Red (21-25° C., 9 days): 11.7 µg/mL
- Stability of Vitamin Es in AB Red (21-25° C., 10 days): 12.0 µg/mL
- Stability of Vitamin Es in AB Red (21-25° C., 11 days): 12.0 µg/mL
- Stability of Vitamin Es in AB Red (21-25° C., 12 days): 12.4 µg/mL
- Stability of Vitamin Es in AB Red (21-25° C., 15 days): 11.6 µg/mL
- Stability of Vitamin Es in AB Red (21-25° C., 16 days): 11.6 µg/mL
- Stability of Vitamin Es in AB Red (21-25° C., 17 days): 12.6 µg/mL
- Stability of Vitamin Es in AB Red (21-25° C., 18 days): 12.1 µg/mL
- Stability of Vitamin Es in AB Red (21-25° C., 19 days): 11.9 µg/mL
- Stability of Vitamin Es in AB Red (21-25° C., 22 days): 11.6 µg/mL
- Stability of Vitamin Es in AB Red (21-25° C., 23 days): 12.7 µg/mL
- Stability of Vitamin Es in AB Red (21-25° C., 24 days): 12.4 µg/mL
- Stability of Vitamin Es in AB Red (21-25° C., 25 days): 11.9 µg/mL
- Stability of Vitamin Es in AB Red (21-25° C., 26 days): 12.1 µg/mL
- Stability of Vitamin Es in AB Red (21-25° C., 29 days): 12.4 µg/mL
- Stability of Vitamin Es in AB Red (21-25° C., 30 days): 12.1 µg/mL
- Stability of Vitamin Es in AB Red (21-25° C., 60 days): 11.7 µg/mL
- Stability of Vitamin Es in AB Red (21-25° C., 90 days): 11.6 µg/mL
- Stability of Vitamin Es in AB Red (21-25° C., 120 days): 11.5 µg/mL
- Stability of Vitamin Es in AB Red (21-25° C., 150 days): 11.4 µg/mL
- Stability of Vitamin Es in AB Red (21-25° C., 180 days): 12.3 µg/mL
- Stability of Vitamin Es in AB Red (21-25° C., 210 days): 11.6 µg/mL
- Stability of Vitamin Es in AB Red (21-25° C., 240 days): 11.6 µg/mL
- Stability of Vitamin Es in AB Red (21-25° C., 270 days): 11.0 µg/mL
- Stability of Vitamin Es in AB Red (21-25° C., 300 days): 11.4 µg/mL
- Stability of Vitamin Es in AB Red (21-25° C., 330 days): 11.4 µg/mL
- Stability of Vitamin Es in AB Red (21-25° C., 390 days): 10.8 µg/mL
- Stability of Vitamin Es in AB Red (21-25° C., 420 days): 11.0 µg/mL
- Stability of Vitamin Es in AB Red (21-25° C., 450 days): 11.2 µg/mL
- Stability of Vitamin Es in AB Red (21-25° C., 480 days): 10.4 µg/mL
- Stability of Vitamin Es in AB Red (21-25° C., 510 days): 10.6 µg/mL
- Stability of Vitamin Es in AB Red (21-25° C., 540 days): 10.3 µg/mL
- Stability of Vitamin Es in AB Red (21-25° C., 570 days): 10.6 µg/mL
